Measurements: US11786517B2, “Methods of treatment using a JAK inhibitor compound” (THERAVANCE BIOPHARMA R&D IP, LLC, priority 2017, dated 2023)

Columns and labels:
[1] = test system: IL-6 induced pSTAT3 in rat retina/choroid; experiment: Pharmacodynamic assay: inhibition of IL6-induced pSTAT3 in rats; type: in vivo, Female Lewis rats; conditions: 3 day pre-treatment
Description: The ability of a single intravitreal administration of test compound to inhibit IL-6 induced pSTAT3 was measured in rat retina/choroid homogenates.
Suspension formulations were prepared by combining crystalline compound 1 of Example 1 with 0.5% hydroxypropyl methylcellulose (HPMC E5 LV), 0.02% Tween 80, and 0.9% sodium chloride in purified water to attain target concentrations of 3 mg/mL and 10 mg/mL.
Female Lewis rats were intravitreally (IVT) dosed (5 μL per eye) with the suspension formulations or with the drug vehicle. Three days later, IL-6 (Peprotech; 0.1 mg/mL; 5 μL per eye) or vehicle was intravitreally administered to induce pSTAT3. Ocular tissues were dissected one hour after the second IVT injection with IL-6. The retina/choroid tissues were homogenized and pSTAT3 levels were measured using an ELISA (Cell Signaling Technology). The percent inhibition of IL-6-induced pSTAT3 was calculated in comparison to the vehicle/vehicle and vehicle/IL-6 groups. Inhibition of greater than 100% reflects a reduction of pSTAT3 levels to below those observed in the vehicle/vehicle group.

[2] = Pharmacokinetics in plasma and lung in mouse; type: in vivo, BALB/c mice; conditions: oral aspiration, 0.2 mg/mL, 50 uL
Description: Plasma and lung levels of the test compound and the ratio thereof was determined in the following manner. BALB/c mice from Charles River Laboratories were used in the assay. Test compounds were individually formulated in 20% propylene glycol in pH 4 citrate buffer at a concentration of 0.2 mg/mL and 50 uL of the dosing solution was introduced into the trachea of a mouse by oral aspiration. At various time points (typically 0.167, 2, 6, 24 hr) post dosing, blood samples were removed via cardiac puncture and intact lungs were excised from the mice. Blood samples were centrifuged (Eppendorf centrifuge, 5804R) for 4 minutes at approximately 12,000 rpm at 4° C. to collect plasma. Lungs were padded dry, weighed, and homogenized at a dilution of 1:3 in sterile water. Plasma and lung levels of test compound were determined by LC-MS analysis against analytical standards constructed into a standard curve in the test matrix. A lung to plasma ratio was determined as the ratio of the lung AUC in μg hr/g to the plasma AUC in μg hr/mL, where AUC is conventionally defined as the area under the curve of test compound concentration vs. time.

BALF eosinophils = experiment: Murine model of Alternaria alternata-induced eosinophilic inflammation of the lung; type: in vivo, C57 mice; conditions: mouse, oropharyngeal aspiration 0.1-1.0 mg/mL, forty-eight hours after alternaria challenge
Description: Airway eosinophilia is a hallmark of human asthma. Alternaria alternata is a fungal aeroallergen that can exacerbate asthma in humans and induces eosinophilic inflammation in the lungs of mice (Havaux et al. Clin Exp Immunol. 2005, 139(2):179-88).
Seven- to nine-week old male C57 mice from Taconic were used in the study. On the day of study, animals were lightly anesthetized with isoflurane and administered either vehicle or test compound (0.1-1.0 mg/mL, 50 μL total volume over several breaths) via oropharyngeal aspiration. Animals were placed in lateral recumbency post dose and monitored for full recovery from anesthesia before being returned to their home cage. One hour later, animals were once again briefly anesthetized and challenged with either vehicle or alternaria extract (200 ug total extract delivered, 50 μL total volume) via oropharyngeal aspiration before being monitored for recovery from anesthesia and returned to their home cage. Forty-eight hours after alternaria administration, bronchoalveolar lavage fluid (BALF) was collected and eosinophils were counted in the BALF using the Advia 120 Hematology System (Siemens).
Activity in the model is evidenced by a decrease in the level of eosinophils present in the BALF of treated animals at forty-eight hours compared to the vehicle treated, alternaria challenged control animals. […]

[3] = test system: IFNγ induced CXCL10 secretion; experiment: Inhibition of IFNγ induced CXCL10 in human 3D airway cultures; type: cell-based; conditions: at μM (so in the source), 8 days, ±STDV
Description: (§1) EpiAirway tissue cultures were obtained from Mattek (AIR-100). Cultures were derived from asthmatic donors. In a cell culture insert, human derived tracheal/bronchial epithelial cells were grown and differentiated on a porous membrane support, allowing an air-liquid interface with warmed culture medium below the cells and a gaseous test atmosphere above. Tissues were cultured in maintenance media (Mattek, AIR-100-MM) in a 37° C., 5% CO2 humidified incubator. Four donors were tested. On Day 0, tissue cultures were treated with test compounds at 10 μM, 1 μM and/or 0.1 μM. Compounds were diluted in dimethyl sulfoxide (DMSO, Sigma) to a final concentration of 0.1%. DMSO at 0.1% was used as a vehicle control. Test compounds were incubated with cultures for 1 hour at 37° C., 5% CO2, followed by the addition of pre-warmed media containing IFNγ (R&D Systems) or IL-27 (R&D Systems) at a final concentration at 100 ng/ml. Tissue cultures were maintained for 8 days. Media was replaced every 2 days with fresh media containing compounds and IFNγ or IL-27. On Day 8, tissue cultures and supernatants were collected for analysis. […] Data is expressed as % Inhibition+/−standard deviation (±STDV). Percent inhibition was determined by compound inhibitory potency against IFNγ or IL-27 induced CXCL10 or CXCL9 secretion compared to vehicle treated cells. […]

[4] = test system: IL-27 induced CXCL10 secretion; experiment: Inhibition of IL-27 induced CXCL10 in human 3D airway cultures; type: cell-based; conditions: 192 h, at 0.1 μM (first of two values so printed), 8 days, ±STDV
Description: as §1

SMILES: CCc1cc(O)c(F)cc1-c1ccc2c(-c3nc4c([nH]3)CCN(C3CCN(C)CC3)C4)n[nH]c2c1 [compound 1, 5-ethyl-2-fluoro-4-(3-(5-(1-methylpiperidin-4-yl)-4,5,6,7-tetrahydro-1H-imidazo[4,5-c]pyridin-2-yl)-1H-indazol-6-yl)phenol]
- inhibition of IL-6-induced pSTAT3 ([1]; 15 μg intravitreal suspension): 33%
- inhibition of IL-6-induced pSTAT3 ([1]; 50 μg intravitreal suspension): 109%
- exposure in lung relative to exposure in plasma (lung AUC to plasma AUC ratio) [2]: about 55 times
- inhibition of BALF eosinophil counts (BALF eosinophils): about 88%
- inhibition of IFNγ induced CXCL10 secretion [3]: 71%±19
- inhibition at 0.1 µM [4]: 98%
